What was measured:
[1] = target: T1, PRAK (Homo sapiens, UniProt Q8IW41); assay: PRAK radiometric kinase assay; assay type: biochemical; conditions: MMI-0100 100 μM; remaining kinase activity
T1 construct: purchased Millipore (KinaseProfiler service)
T1 sequence (Q8IW41 1-473): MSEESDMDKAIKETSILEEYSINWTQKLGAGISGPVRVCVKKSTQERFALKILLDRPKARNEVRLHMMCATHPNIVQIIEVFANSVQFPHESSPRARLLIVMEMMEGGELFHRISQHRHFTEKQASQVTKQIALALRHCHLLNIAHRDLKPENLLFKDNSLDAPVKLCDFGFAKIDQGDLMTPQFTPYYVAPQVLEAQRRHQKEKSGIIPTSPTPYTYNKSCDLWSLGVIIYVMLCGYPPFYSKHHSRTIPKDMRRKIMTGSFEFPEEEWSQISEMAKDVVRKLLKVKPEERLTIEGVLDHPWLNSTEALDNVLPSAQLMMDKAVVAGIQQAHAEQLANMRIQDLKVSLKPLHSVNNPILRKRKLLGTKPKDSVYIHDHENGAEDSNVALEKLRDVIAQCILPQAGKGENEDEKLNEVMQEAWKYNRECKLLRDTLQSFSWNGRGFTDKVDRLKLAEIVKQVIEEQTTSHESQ
Text: A commercial radiometric assay service was used to test the specificity and potency of MMI-0100 ([…]; SEQ ID NO: 1) by measuring its half maximal inhibitory concentrations (IC50). This quantitative assay measures how much MK2 inhibitor (MMI-0100; […] (SEQ ID NO: 1)) is needed to inhibit 50% of a given biological process or component of a process (i.e., an enzyme, cell, or cell receptor). Specifically, in these assays, a positively charged substrate is phosphorylated with a radiolabeled phosphate group from an ATP if the kinase is not inhibited by an inhibitor peptide. The positively charged substrate then is attracted to a negatively charged filter membrane, quantified with a scintillation counter, and compared to a 100% activity control. ATP concentrations within 15 μM of the apparent Km for ATP were chosen since an ATP concentration near the Km may allow for the kinases to have the same relative amount of phosphorylation activity. The individual conditions for each radiometric assay are as follows. […]
IC50 values for inhibitor peptides were determined using Millipore's IC50 Profiler Express service. […]

[2] = tested on: human saphenous vein (HSV); assay: Human saphenous vein organ culture model of intimal hyperplasia
Experimental: Dc-identified, discarded segments of human saphenous vein (HSV) were collected from consented patients undergoing coronary artery or peripheral vascular bypass surgeries. HSV segments were stored in a saline solution until the end of the surgical procedure, at which time they were placed in cold transplant harvest buffer (100 mM potassium lactobionate, 25 mM KH2PO4, 5 mM MgSO4, 30 mM Raffinose, 5 mM Adenosine, 3 mM Glutathione, 1 mM Allopurinol, 50 g/L Hydroxyethyl starch, pH 7.4). The vessels were used within 24 hours of harvest. Using sterile technique, HSV segments were transferred to a 60-mm Petri dish under a sterile hood. The edges (0.5 mm) of each segment were removed with a blade and excess adventitial tissue and fat removed with minimal manipulation. […]
After viability was determined in the muscle bath, additional rings were cut and placed in 8-well chamber slides and maintained in RPMI 1640 medium supplemented with 30% FBS, 1% L-glutamine and 1% penicillin/streptomycin for 14 days at 37° C. in an atmosphere of 5% CO2 in air. […]
After 14 days of organ culture, vein segments were fixed in 0.5 mL of 10% formalin at 37° C. for 30 minutes and embedded in paraffin for sectioning. […] Intimal and medial thickening was measured for each section at 5× magnification with the microscope's computerized image analysis system. […]

[3] = Toxicity observation (test not specified)

## YARAAARQARAKALARQLGVAA [MMI-0100]
[1]
  Percent Activity, PRAK: 100%
[2]; 10 μM MMI-0100, 14 days culture, 30% FBS
  mean intimal thickness: 14 μm
[2]; 100 μM MMI-0100, 14 days, 30% serum
  intima:media (I:M) ratio: greater reduction
[3]
  evidence of toxicity, tissue erosion, or necrosis: did not show any evidence
